Key:
[1] = tested on: NRF2; experiment: AREc32 luciferase reporter assay; format: cell-based, human; settings: EC2×: concentration required to increase GST ARE Luciferase reporter activity by 2-fold; AREc32 cells, 19 hours
Source text: B. AREc32 Luciferase Reporter Assay
The AREc32 luciferase reporter assay allows for quantitative assessment of the endogenous activity of the Nrf2 transcription factor in cultured mammalian cells. AREc32 cells are derived from MCF-7 human breast carcinoma cells that were stably transfected with a reporter construct that contains the firefly luciferase gene located downstream of eight copies of the rat GSTA2 antioxidant response element (ARE) sequence (Wang et al., 2006; CXR Biosciences). Active NRF2 binds to the ARE sequences and increases expression of the firefly luciferase gene. To assess the NRF2-activating potential of the test compounds, AREc32 cells were plated in black 96-well plates at a density of 20,000 cells per well in triplicate in DMEM+10% FBS+0.8 mg/mL Geneticin and incubated at 37° C. with 5% CO2 in a humidified atmosphere. The next day, cells were treated with DMSO (vehicle) or test compound (concentration ranges of 0.4-200 nM or 2-1000 nM) for 19 hours. Luciferase activity was determined using the ONE-Glo Luciferase assay (Promega). The luminescence signal was measured on a BMG Pherastar microplate reader. The mean luminescence value from test compound-treated wells was normalized to that from DMSO-treated wells and was represented as fold-induction. Data were analyzed using GraphPad Prism version 6.00 for Windows, GraphPad Software, La Jolla Calif. USA. A non-linear regression curve with log (agonist) vs. response using a variable slope was used to fit the data. Where applicable, a maximum threshold value of 50-fold over DMSO was set. EC2× values were interpolated from the curve. EC2× corresponds to the concentration of test compound required to increase GST ARE Luciferase reporter activity by 2-fold.

[2] = target: T1, human RORγ (Homo sapiens, UniProt P51449); experiment: RORγ assay (GAL4-RORγ hybrid luciferase reporter, inverse-agonist activity); format: cell-based; settings: GAL4-RORγ hybrid reporter cells, 23 hours
T1 sequence (P51449 269-508 limits assumed): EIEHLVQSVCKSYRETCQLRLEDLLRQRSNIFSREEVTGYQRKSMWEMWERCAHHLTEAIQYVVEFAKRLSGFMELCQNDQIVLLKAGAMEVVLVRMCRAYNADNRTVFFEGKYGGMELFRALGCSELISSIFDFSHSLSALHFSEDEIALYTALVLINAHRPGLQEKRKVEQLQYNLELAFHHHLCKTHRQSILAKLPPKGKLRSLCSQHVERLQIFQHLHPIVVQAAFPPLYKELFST
Source text: C. RORγ Assay and Cell Viability
The RORγ assay system was purchased from Indigo Biosciences. This nuclear receptor assay utilizes a human cell line that has been engineered to express a hybrid form of the Human RAR-related Orphan Receptor Gamma (RORγ) at high levels. The N-terminal DNA binding domain (DBD) of the native RORγ receptor was substituted with the yeast GAL4-DBD to generate the GAL4-RORγ hybrid nuclear receptor. The reporter cell line is transfected with a plasmid that encodes the beetle luciferase gene under the control of the GAL4 upstream activating sequence (UAS). GAL4 binds to the UAS and increases transcription of downstream target genes. […] To assess the RORγ inverse-agonist activity of the test compounds, reporter cells were plated in white 96-well plates in triplicate and were treated with DMSO (vehicle) or test compound (concentration ranges of 0.4-200 nM or 2-1000 nM) at 37° C. with 5% CO2 in a humidified atmosphere for 23 hours. After this incubation, luciferin was added to the wells and luciferase activity was determined by measuring the luminescence signal using a BMG Pherastar microplate reader. Viability was determined using the Live Cell Multiplex Assay (Indigo Biosciences). Values from test compound samples were normalized to those from DMSO-treated samples. Data were analyzed using GraphPad Prism version 6.00 for Windows (GraphPad Software, La Jolla Calif. USA). A non-linear regression analysis with log (inhibitor) vs. normalized response using a variable slope was applied to fit the data and determine the IC50 values for inhibition of RORγ and cell viability.

[3] = tested on: IFNγ-induced Nitric Oxide production; experiment: Nitric oxide production assay in RAW 264.7 mouse macrophages; format: cell-based; settings: RAW264.7, suppression of IFNγ-induced NO production normalized to cell viability (WST-1), RAW 264.7, 24 hours IFNγ
Method: A. Nitric Oxide Production Assay and Cell Viability
RAW 264.7 mouse macrophages were plated in 96-well plates at a density of 30,000 cells per well in triplicate in RPMI 1640+0.5% FBS and incubated at 37° C. with 5% CO2 in a humidified atmosphere. The next day, cells were pre-treated with DMSO (vehicle) or test compound (concentration ranges of 0.4-200 nM or 2-1000 nM) for 2 hours and then treated with recombinant mouse IFNγ (R&D Systems) for 24 hours. Nitric oxide concentration in media was determined using the Griess reagent system (Promega). Cell viability was determined using WST-1 reagent (Roche). Values from test compound samples were normalized to those from DMSO/IFNγ-treated samples. IC50 values were determined based on the suppression of IFNγ-induced Nitric Oxide production normalized to cell viability.

[4] = tested on: hIL17; experiment: IL-17 release from differentiated primary human T-cells (IL-17A HTRF assay); format: cell-based; settings: inhibition of IL-17A levels; primary human CD4+ T cells differentiated into Th17 cells, 46-hour incubation
Method: D. IL-17 Release from Differentiated Primary Human T-Cells and Cell Viability
Primary human cryopreserved CD4+ T Cells (Lonza, donor #0000402103) were plated in Lymphocyte Growth Medium-3 (LGM-3, Lonza) according to the manufacturer's recommendations, and allowed to recover for approximately 3 hours at 37° C. with 5% CO2 in a humidified atmosphere. After the recovery step, cells were collected by centrifugation and re-plated in 96-well plates at a density of ˜140,000 cells per well in LGM-3 medium that contained DMSO (vehicle) or test compound (2-500 nM or 4-1000 nM concentration range). Triplicate wells were plated for each test condition. DMSO (final concentration ≤0.1%) was used as the vehicle. Immediately after plating, CD4+ T cells were activated by adding Dynabeads Human T-Activator CD3/CD28 (Life Technologies; bead-to-cell ratio of 1:2.5) and differentiated into Th17 cells by adding a mixture of the following cytokines: transforming growth factor-β (TGF-β, 5 ng/mL), IL-6 (20 ng/mL), IL-23 (20 ng/mL), and […] (10 ng/mL). Undifferentiated control cells received only cytokine IL-2 (50 ng/mL). All human recombinant cytokines were purchased from R&D Systems. Following a 46-hour incubation at 37° C. with 5% CO2 in a humidified atmosphere, the plates were centrifuged for 3 minutes at 250×g, and half of the supernatant was transferred to a new plate to be used in the IL-17A assay (see below). Cell viability was assessed in the original plate using the CyQuant Direct Assay (Life Technologies). CyQuant values from test compound samples were normalized to those from DMSO-treated samples. The concentration of IL-17A in the supernatant was measured using the Homogeneous Time-Resolved Fluorescence (HTRF) assay (Cisbio Bioassays) according to the manufacturer's protocol. The assay was performed at room temperature in low volume, solid white 384-well plates (Greiner Bio-One). Samples and standards (serially-diluted human recombinant IL-17A (0 to 5,000 pg/mL concentration range; Cisbio Bioassays) were incubated with the anti-human IL-17A antibody conjugate for 16 hours and fluorescence was measured using a Pherastar FS microplate reader (BMG Labtech) in the HTRF mode (excitation at 337 nm and emission at 665 nm and 620 nm). IL-17A concentrations were assessed in duplicate aliquots of supernatant from each well resulting in a total of six readings per test condition. The 665 nm/620 nm signal ratio was calculated and the concentration of IL-17A in each sample was determined by interpolation from the standard curve. IL-17A values from test compound samples were normalized to those from DMSO-treated samples. Data were analyzed using GraphPad Prism version 6.00 for Windows (GraphPad Software, La Jolla Calif. USA). A non-linear regression analysis with log (inhibitor) vs. normalized response using a variable slope was applied to fit the data and determine the IC50 values for inhibition of IL-17A levels and cell viability.

Row | SMILES | IC50 [2] | IC50 [4] | EC2x: concentration giving 2-fold induction of ARE luciferase reporter [1] | IC50 [3]
1 | COC(=O)C[C@]1(C)C(=O)C(C#N)=C[C@]2(C)C3=CC(=O)[C@@H]4[C@@H]5CC(C)(C)CC[C@]5(C(=O)OC)CC[C@@]4(C)[C@]3(C)CC[C@H]21 [Compound T21, methyl (4aS,6aR,6bS,8aR,9S,12aS,14aR,14bS)-11-cyano-9-(2-methoxy-2-oxoethyl)-2,2,6a,6b,9,12a-hexamethyl-10,14-dioxo-1,3,4,5,6,6a,6b,7,8,8a,9,10,12a,14,14a,14b-hexadecahydropicene-4a(2H)-carboxylate] | 0.203 µM | 0.033 µM | 269 nM | 0.105 µM
2 | Cc1nnc([C@]23CCC(C)(C)C[C@H]2[C@H]2C(=O)C=C4[C@@]5(C)C=C(C#N)C(=O)[C@@](C)(CO)[C@@H]5CC[C@@]4(C)[C@]2(C)CC3)o1 [Compound T42, (4R,4aR,6aS,6bR,8aS,12aS,12bR,14bS)-4-(hydroxymethyl)-4,6a,6b, 11,11,14b-hexamethyl-8a-(5-methyl-1,3,4-oxadiazol-2-yl)-3,13-dioxo-3,4,4a,5,6,6a,6b,7,8,8a,9,10,11,12,12a,12b,13,14b-octadecahydropicene-2-carbonitrile] | 0.389 µM | 0.101 µM | 97 nM | 0.0104 µM
3 | Cc1nnc([C@]23CCC(C)(C)C[C@H]2[C@H]2C(=O)C=C4[C@@]5(C)C=C(C#N)C(=O)C(C)(C)[C@@H]5CC[C@@]4(C)[C@]2(C)CC3)o1 [Comparison Compound #8, reference compound] | 0.222 µM | 0.032 µM | 15 nM | 0.002 µM
4 | CC(=O)OC[C@]1(C)C(=O)C(C#N)=C[C@]2(C)C3=CC(=O)[C@@H]4[C@@H]5CC(C)(C)CC[C@]5(NC(=O)C(C)(F)F)CC[C@@]4(C)[C@]3(C)CC[C@H]21 [Compound T29, ((4R,4aR,6aS,6bR,8aS,12aS,12bR,14bS)-2-cyano-8a-(2,2-difluoropropanamido)-4,6a,6b,11,11,14b-hexamethyl-3,13-dioxo-3,4,4a,5,6,6a,6b,7,8,8a,9,10,11,12,12a,12b,13,14b-octadecahydropicen-4-yl)methyl acetate] | 0.141 µM | 0.037 µM | 360 nM | 0.118 µM

The remaining compounds from weak to strong by IC50 [4], led by results:

Row | IC50 [2] | IC50 [4] | SMILES | EC2x: concentration giving 2-fold induction of ARE luciferase reporter [1] | IC50 [3]
5 | – | 0.126 µM | CN(C)C(=O)[C@]1(C)C(=O)C(C#N)=C[C@]2(C)C3=CC(=O)[C@]45OC(=O)[C@@]6(CCC(C)(C)C[C@H]64)CC[C@@]5(C)[C@]3(C)CC[C@@H]12 [Compound T36, (4S,4aR,6aR,6bS,8aS,12aR,12bS,14bS)-2-cyano-N,N,4,6a,6b, 11,11,14b-octamethyl-3,13,16-trioxo-4,4a,5,6,6a,6b,7,8,10,11,12,12a,13,14b-tetradecahydro-3H,9H-12b,8a-(epoxymethano)picene-4-carboxamide] | >1000 nM | > 1 µM
6 | – | 0.067 µM | CCNC(=O)[C@]12CCC(C)(C)C[C@H]1[C@H]1C(=O)C=C3[C@@]4(C)C=C(C#N)C(=O)[C@@](C)(CO)[C@@H]4CC[C@@]3(C)[C@]1(C)CC2 [Compound T25, (4aS,6aR,6bS,8aR,9R,12aS,14aR,14bS)-11-cyano-N-ethyl-9-(hydroxymethyl)-2,2,6a,6b,9,12a-hexamethyl-10,14-dioxo-1,3,4,5,6,6a,6b,7,8,8a,9,10,12a,14,14a,14b-hexadecahydropicene-4a(2H)-carboxamide] | 131 nM | 0.016 µM
7 | 0.197 µM | 0.037 µM | CC1(C)CC[C@]2(C(=O)NCC(F)(F)F)CC[C@]3(C)[C@H](C(=O)C=C4[C@@]5(C)C=C(C#N)C(=O)[C@@](C)(O)[C@@H]5CC[C@]43C)[C@@H]2C1 [Compound T24, (4aS,6aR,6bS,8aR,9S,12aS,14aR,14bS)-11-cyano-9-hydroxy-2,2,6a,6b,9,12a-hexamethyl-10,14-dioxo-N-(2,2,2-trifluoroethyl)-1,3,4,5,6,6a,6b,7,8,8a,9,10,12a,14,14a,14b-hexadecahydropicene-4a(2H)-carboxamide] | 406 nM | 0.184 µM
8 | 0.371 µM | 0.027 µM | COC(=O)N[C@]12CCC(C)(C)C[C@H]1[C@H]1C(=O)C=C3[C@@]4(C)C=C(C#N)C(=O)C(C)(C)[C@@H]4CC[C@@]3(C)[C@]1(C)CC2 [Comparison Compound #7, reference compound] | 20 nM | 0.0024 µM

From patent US11584775B2, “C4-modified oleanolic acid derivatives for inhibition of IL-17 and other uses” (REATA PHARMACEUTICALS, INC., priority 2015, dated 2023)
